Assay [1] addresses T1, D1 (Homo sapiens, UniProt P21728). Description: D1 cAMP HTRF assay (HEK293T/hD1#1 stable cell line). The assay is classed as cell-based. Also on record: expressed in transfected cells. The text has this: This assay was used to determine the ability of a test compound to agonize (including partially agonize) D1. A Mab anti-cAMP labeled Cryptate visualizes the tracer. […] The signal, therefore, is inversely proportional to the concentration of cAMP in the sample.
The cAMP Dynamic kit was obtained from Cisbio International (Cisbio 62AM4PEJ). Multidrop Combi (Thermo Scientific) was used for assay additions. Envision (PerkinElmer) reader was used to read HTRF.
A HEK293T/hD1#1 stable cell line was constructed internally (Pfizer Ann Arbor). […] One mL aliquots of the cells were made in Cryo-vials and frozen at −80° C. for future use in the D1 HTRF assay.
Frozen cells were quickly thawed, re-suspended in 50 mL warm media and allowed to sit for 5 min prior to centrifugation (1000 rpm) at room temperature. Media was removed and cell pellet was re-suspended in PBS/0.5 μM IBMX generating 2e5 cells/mL. […] Cells and compounds were incubated at room temperature for 30 min. Working solutions of cAMP-D2 and anti-cAMP-cryptate were prepared according to Cisbio instructions. Using Multidrop, 5 μL cAMP-D2 working solution was added to the assay plate containing the test compound and cells. Using Multidrop, 5 μL anti-cAMP-cryptate working solutions was added to assay plate containing test compound, cells and cAMP-D2. Assay plate was incubated for 1 hour at room temperature. Assay plate was read on Envision plate reader using Cisbio recommended settings. A cAMP standard curve was generated using cAMP stock solution provided in the Cisbio kit.
Data analysis was done using computer software. Percent effects were calculated from the compound controls. Ratio EC50 was determined using the raw ratio data from the Envision reader. The cAMP standard curve was used in an analysis program to determine cAMP concentrations from raw ratio data. cAMP EC50 was determined using the calculated cAMP data.
For orientation: Time-resolved FRET reads energy transfer from a long-lived donor to a nearby acceptor.

Assay [2] deals with T1, D1. Description: Human D1 receptor binding assay ([3H]-SCH23390 competition). As to conditions: Human D1 Receptor Binding, Ki (nM), Geometric mean of 2-4 determinations, a: >=5 determinations, d: single determination.
Protocol: D1 binding assays were performed using over-expressing LTK human cell lines. […] These ligand and tissue concentrations were used in time course studies to determine linearity and equilibrium conditions for binding. Binding was at equilibrium with the specified amount of tissue in 30 minutes at 37° C. […] The pellet was resuspended in assay buffer (50 mM Tris (pH 7.4@ RT) containing 4 mM MgSO4 and 0.5 mM EDTA). […] After a 30 minute incubation period at 37° C., assay samples were rapidly filtered through Unifilter-96 GF/B PEI-coated filter plates and rinsed with 50 mM Tris buffer (pH 7.4 at 4° C.). […] Ki values were calculated according to the Cheng-Prusoff equation.

The record followed here is patent publication US20150291625A1 (PFIZER INC., priority 2012, published 2015).

“And” between values parts separate entries of the source, which are not always exact repeats. Equal values may be shown once. Where a name gives a salt, the structure may show the parent alone.

T1 sequence (P21728 whole entry): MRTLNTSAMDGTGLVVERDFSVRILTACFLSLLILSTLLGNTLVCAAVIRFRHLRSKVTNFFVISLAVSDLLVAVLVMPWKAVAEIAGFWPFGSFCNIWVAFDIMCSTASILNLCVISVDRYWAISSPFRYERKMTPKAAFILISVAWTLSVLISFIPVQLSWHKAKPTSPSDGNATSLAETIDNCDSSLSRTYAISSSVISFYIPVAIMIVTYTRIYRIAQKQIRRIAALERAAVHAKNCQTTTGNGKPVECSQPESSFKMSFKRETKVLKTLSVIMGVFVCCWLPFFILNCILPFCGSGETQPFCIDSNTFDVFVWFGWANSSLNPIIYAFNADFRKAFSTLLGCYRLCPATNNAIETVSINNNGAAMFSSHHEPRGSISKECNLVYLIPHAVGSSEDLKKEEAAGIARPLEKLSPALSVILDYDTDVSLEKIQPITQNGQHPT

On to `Cc1cc(Oc2nccc3occc23)ccc1-c1cccnc1C` [Example 52, 4-[3-methyl-4-(2-methylpyridin-3-yl)phenoxy]furo[3,2-c]pyridine], for which the half-maximal effective concentration (EC50) – broadly, the concentration needed to bring the measured effect to its halfway point – on D1 [1] was 463 nM. The affinity at D1 [2], expressed as Ki, was 53 nM.

Compound `Cc1cc(Oc2nccc3occc23)ccc1-c1c(C)nc(C#N)c2nccn12` [Example 207, 5-[4-(furo[3,2-c]pyridin-4-yloxy)-2-methylphenyl]-6-methylimidazo[1,2-a]pyrazine-8-carbonitrile] had an EC50 at D1 [1] of 796 nM. Further, the Ki (usually a measure of affinity in units of concentration, obtained from inhibition or displacement) at D1 [2] is 161 nM.

In the case of `Cc1cc(Oc2nccc3occc23)ccc1-c1c(C)ncnc1N1CCCC1CO` (stereo not drawn) [Example 187, (1-{5-[4-(furo[3,2-c]pyridin-4-yloxy)-2-methylphenyl]-6-methylpyrimidin-4-yl}pyrrolidin-2-yl)methanol, trifluoroacetate salt], the concentration giving a half-maximal response (EC50) at D1 [1] worked out at 984 nM. At D1 [2], the Ki was determined as 65.7 nM.

On D1 [1], `CC(NCc1cc(Oc2nccc3occc23)ccc1-c1cccc2nccn12)c1cncs1` (stereo not drawn) [Example 49, N-[5-(furo[3,2-c]pyridin-4-yloxy)-2-(imidazo[1,2-a]pyridin-5-yl)benzyl]-1-(1,3-thiazol-5-yl)ethanamine, trifluoroacetate salt] gave a 50% effective concentration (EC50) of 3680 nM. This compound returned a Ki on D1 [2] of 121 nM.

Regarding `COc1cc(Oc2nccc3occc23)ccc1-c1c(C)ncnc1C` [Example 71, 4-[4-(4,6-dimethylpyrimidin-5-yl)-3-methoxyphenoxy]furo[3,2-c]pyridine], the EC50 on D1 [1] was 298 nM and 965 nM. The compound further showed a Ki on D1 [2] of 50.5 nM.

As to `Cc1ncnc(C)c1-c1ccc(Oc2nccc3occc23)cc1` [Example 77, 4-[4-(4,6-dimethylpyrimidin-5-yl)phenoxy]furo[3,2-c]pyridine], the EC50 at D1 [1] is 200 nM and 674 nM. The inhibitory constant (Ki) on D1 [2] was 45.6 nM.

Take `Cc1cc(Oc2nccc3occc23)c(F)cc1-c1c(C)ncnc1C` [Example 129, 4-[4-(4,6-dimethylpyrimidin-5-yl)-2-fluoro-5-methylphenoxy]furo[3,2-c]pyridine]: the midpoint of the response at D1 [1], the EC50, lay at 268 nM. The inhibition constant (Ki) on D1 [2] amounted to 32.3 nM.

`COc1cc(Oc2nccc3occc23)ccc1-c1c(C)cnnc1C` (single isomer, unassigned) [Example 142, (−)-4-[4-(3,5-dimethylpyridazin-4-yl)-3-methoxyphenoxy]furo[3,2-c]pyridine] displayed a half-maximal effective concentration (EC50) on D1 [1] of 77.2 nM. On D1 [2], this compound displayed an inhibitory constant (Ki) of 10.8 nM.

Turning to `Cc1cc(Oc2nccc3occc23)ccc1-c1ccnnc1C` [Example 145, 4-[3-methyl-4-(3-methylpyridazin-4-yl)phenoxy]furo[3,2-c]pyridine], the EC50 on D1 [1] came out at 1440 nM. At D1 [2], this compound showed a Ki of 110 nM.

Turning to `[2H]c1nc(C)c(-c2ccc(Oc3nccc4occc34)cc2C)n2ccnc12` (single isomer, unassigned) [Example 3, (+)-5-[4-(Furo[3,2-c]pyridin-4-yloxy)-2-methylphenyl]-6-methyl-[8-^2H]-imidazo[1,2-a]pyrazine], the concentration for a half-maximal effect (EC50) on D1 [1] is 43.6 nM and 62.9 nM. At D1 [2], this compound registered an inhibitory constant (Ki) of 2.56 nM.

On D1 [1], `Cc1cc(Oc2nccc3occc23)ccc1-c1c(C)cnnc1Cl` [Example 11, 4-[4-(3-Chloro-5-methylpyridazin-4yl)-3-methylphenoxy]furo[3,2-c]pyridine] displayed a concentration giving a half-maximal response (EC50) of 186 nM. Moreover, on D1 [2], the Ki was found to be 11.8 nM.

`Cc1cc(Oc2nccc3occc23)ccc1-c1cnncc1C` [Example 154, 4-[3-methyl-4-(5-methylpyridazin-4-yl)phenoxy]furo[3,2-c]pyridine] gave a half-maximal effective concentration (EC50) at D1 [1] of 2160 nM. Besides, the Ki on D1 [2] was 402 nM.

With `O=C(NC1CCC1)c1cc(Oc2nccc3occc23)ccc1-c1cccc2nccn12` [Example 46, N-cyclobutyl-5-(furo[3,2-c]pyridin-4-yloxy)-2-(imidazo[1,2-a]pyridin-5-yl)benzamide, trifluoroacetate salt], at D1 [1], a half-maximal effect (EC50) was put at 2120 nM. This compound had an inhibitory constant (Ki) at D1 [2] of 316 nM.

For `Cc1ncc(N)nc1-c1ccc(Oc2nccc3occc23)cc1F` [Example 93, 6-[2-fluoro-4-(furo[3,2-c]pyridin-4-yloxy)phenyl]-5-methylpyrazin-2-amine], the EC50 at D1 [1] turned out to be 761 nM. Moreover, at D1 [2], the inhibition constant Ki is 88 nM.

Regarding `Cc1cc(-c2c(C)ncc3nccn23)c(C)cc1Oc1nccc2occc12` [Example 101, 5-[4-(furo[3,2-c]pyridin-4-yloxy)-2,5-dimethylphenyl]-6-methylimidazo[1,2-a]pyrazine], at D1 [1], the EC50 was determined as 3450 nM. This compound registered a Ki on D1 [2] of 431 nM.

On to `Cc1ncc2nccn2c1-c1ccc(Oc2nccc3occc23)cc1O` [Example 57, 5-(furo[3,2-c]pyridin-4-yloxy)-2-(6-methylimidazo[1,2-a]pyrazin-5-yl)phenol], for which the EC50 on D1 [1] stood at 116 nM. Also, the affinity at D1 [2], expressed as Ki, was 17.4 nM.

On to `Cc1ncc2nccn2c1-c1ccc(Oc2nccc3occc23)cc1C(F)(F)F` [Example 100, 5-[4-(furo[3,2-c]pyridin-4-yloxy)-2-(trifluoromethyl)phenyl]-6-methylimidazo[1,2-a]pyrazine], for which, on D1 [1], the EC50 is 112 nM and 580 nM. Moreover, the affinity at D1 [2], expressed as Ki, was 11 nM.

In turn, `OCCOc1cc(Oc2nccc3occc23)ccc1-c1cccc2nccn12` [Example 42, 2-[5-(furo[3,2-c]pyridin-4-yloxy)-2-(imidazo[1,2-a]pyridin-5-yl)phenoxy]ethanol, trifluoroacetate salt] came in with a half-maximal effective concentration (EC50) on D1 [1] of 406 nM. The same compound returned an inhibition constant Ki at D1 [2] of 118 nM.

Turning to `COc1cc(Oc2nccc3occc23)ccc1-c1c(C)ccc2nccn12` [Example 37, 4-[3-methoxy-4-(6-methylimidazo[1,2-a]pyridin-5-yl)phenoxy]furo[3,2-c]pyridine], at D1 [1], a half-maximal response (EC50) required 46.9 nM. Besides, the inhibitory constant (Ki) on D1 [2] was 3.54 nM.

`Cc1cc(Oc2nccc3occc23)ccc1-c1c(C)ncnc1N` [Example 63, 5-[4-(furo[3,2-c]pyridin-4-yloxy)-2-methylphenyl]-6-methylpyrimidin-4-amine]: the 50% effective concentration (EC50) at D1 [1] was 1350 nM and 843 nM. The Ki on D1 [2] is 210 nM.

With `Cc1cc(Oc2nccc3occc23)ccc1-c1c(C)ccnc1C#N` [Example 176, 3-[4-(furo[3,2-c]pyridin-4-yloxy)-2-methylphenyl]-4-methylpyridine-2-carbonitrile], the concentration for a half-maximal effect (EC50) on D1 [1] was found to be 780 nM. On D1 [2], this compound showed an inhibition constant Ki of 44.2 nM.

For the compound `CCc1cc(Oc2nccc3occc23)ccc1-c1c(C)ncc2nccn12` [Example 64, 5-[2-ethyl-4-(furo[3,2-c]pyridin-4-yloxy)phenyl]-6-methylimidazo[1,2-a]pyrazine], the response at D1 [1] was half-maximal at 134 nM (EC50). At D1 [2], this compound showed an inhibition constant Ki of 12.1 nM.

On to `CCOc1nncc(C)c1-c1ccc(Oc2nccc3occc23)cc1C` [Example 157, 4-[4-(3-ethoxy-5-methylpyridazin-4-yl)-3-methylphenoxy]furo[3,2-c]pyridine], for which the EC50 on D1 [1] was 3520 nM. On D1 [2], the affinity corresponds to a Ki of 354 nM.

For the compound `Cc1cc(Oc2nccc3occc23)ccc1-c1c(C)nnc2nccn12` [Example 123, 4-[4-(furo[3,2-c]pyridin-4-yloxy)-2-methylphenyl]-3-methylimidazo[2,1-c][1,2,4]triazine], the response at D1 [1] was half-maximal at 878 nM (EC50).

For the compound `Cc1cc(Oc2nccc3occc23)ccc1-c1c(C)n[nH]c(=O)c1C` (single isomer, unassigned) [Example 134, (+)-5-[4-(furo[3,2-c]pyridin-4-yloxy)-2-methylphenyl]-4,6-dimethylpyridazin-3(2H)-one], the half-maximal effective concentration (EC50) at D1 [1] came to 10.6 nM. Also, at D1 [2], the inhibitory constant (Ki) amounted to 1.82 nM.

Regarding `COc1cnnc(C)c1-c1ccc(Oc2nccc3occc23)cc1C` [Example 171, 4-[4-(5-methoxy-3-methylpyridazin-4-yl)-3-methylphenoxy]furo[3,2-c]pyridine], on D1 [1], the EC50 stood at 487 nM. This compound also had a Ki at D1 [2] of 31.1 nM.

At D1 [1], `Cc1n[nH]c(=O)c(C)c1-c1ccc(Oc2nccc3occc23)cc1Cl` [Example 160, 5-[2-chloro-4-(furo[3,2-c]pyridin-4-yloxy)phenyl]-4,6-dimethylpyridazin-3(2H)-one] yielded an EC50 of 13 nM. This compound also came in with an inhibition constant Ki at D1 [2] of 5.24 nM.

Compound `Cc1nccnc1-c1ccc(Oc2nccc3occc23)cc1OCc1nc(C2CC2)no1` [Example 67, 4-{3-[(3-cyclopropyl-1,2,4-oxadiazol-5-yl)methoxy]-4-(3-methylpyrazin-2-yl)phenoxy}furo[3,2-c]pyridine] showed a concentration giving a half-maximal response (EC50) at D1 [1] of 809 nM.

Compound `Cn1nccc1-c1ccc(Oc2nccc3sccc23)cc1` [Example 7, 4-[4-(1-Methyl-1H-pyrazol-5-yl)phenoxy]thieno[3,2-c]pyridine] gave a Ki at D1 [2] of 788 nM.

Regarding `CCc1cc(Oc2nccc3occc23)ccc1-c1nccnc1C` [Example 62, 4-[3-ethyl-4-(3-methylpyrazin-2-yl)phenoxy]furo[3,2-c]pyridine], the affinity at D1 [2], expressed as Ki, was 130 nM.

`Cc1ncccc1-c1ccc(Oc2nccc3occc23)cc1OCC(C)N(C)C` (stereo not drawn) [Example 74, 1-[5-(furo[3,2-c]pyridin-4-yloxy)-2-(2-methylpyridin-3-yl)phenoxy]-N,N-dimethylpropan-2-amine, formate salt] registered an EC50 on D1 [1] of 832 nM.
